Measured values as given in publication PMC10861955 (Heliyon, 2024).

Target: T1, Helicobacter pylori inosine 5′-monophosphate dehydrogenase (HpIMPDH) (Helicobacter pylori, UniProt P56088)
T1 sequence (P56088 1-481): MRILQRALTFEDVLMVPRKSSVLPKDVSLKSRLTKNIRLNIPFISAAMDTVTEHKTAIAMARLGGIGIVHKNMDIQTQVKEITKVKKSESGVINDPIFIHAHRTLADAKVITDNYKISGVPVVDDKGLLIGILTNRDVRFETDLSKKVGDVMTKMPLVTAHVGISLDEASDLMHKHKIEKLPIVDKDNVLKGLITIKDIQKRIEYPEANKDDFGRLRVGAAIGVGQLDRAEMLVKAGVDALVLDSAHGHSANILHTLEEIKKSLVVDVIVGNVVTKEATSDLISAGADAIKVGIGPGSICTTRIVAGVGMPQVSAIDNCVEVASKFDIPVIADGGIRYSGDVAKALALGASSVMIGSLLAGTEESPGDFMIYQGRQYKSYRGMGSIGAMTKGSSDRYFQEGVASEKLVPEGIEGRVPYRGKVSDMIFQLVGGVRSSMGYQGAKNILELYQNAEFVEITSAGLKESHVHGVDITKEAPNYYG
Assay: fluorescence assay of NADH formation, […] HpIMPDH
Format: biochemical

Row | SMILES | IC50 [nM]
1 | COc1c2occc2cc2ccc(=O)oc12 [Compound 2, xanthotoxin] | 2800
2 | COc1cc(OC)c2ccc(=O)oc2c1 [Compound 3, 5,7-di-methoxy-2H-chromen-2-one] | 2400
